Experimental findings from ChEMBL document CHEMBL1201862, “PubChem BioAssay data set” (2004) are described below.

Among the test systems are SK-MEL-2; UO-31; BT-549; RXF 393; CCRF-CEM; DU-145; ACHN; HOP-62; SF-295; A498; SK-OV-3; MDA-MB-231; OVCAR-4; SK-MEL-28; M14; T47D; SK-MEL-5; LOX IMVI; MDA-MB-435.
Common to all, as to assay: NCI tumour cell line growth inhibition, 48 h

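48-hour exposure; five concentrations; linearly interpolated endpoints. Here, GI50 denotes the concentration required for 50% inhibition of growth.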 Activity calls are given as the source filed them. No stated cut-off is given here; in the data, active = GI50 up to about 1.1 µM and inactive = higher. Where a SMILES comes first, the peptide text is derived from it. [ ]: non-standard residue; d: D form. Ac5c = NC1(C(=O)O)CCCC1

For the compound `O=C1Cc2c([nH]c3ccc([N+](=O)[O-])cc23)-c2ccccc2N1` [ALSTERPAULLONE], the GI50 in the assay with SK-MEL-2 is 0.713 µM (active); with UO-31, 0.109 µM (active); in the assay with BT-549, 1.08 µM (active); in the assay on RXF 393, 0.284 µM (active); with CCRF-CEM, 0.118 µM (active); with DU-145, 0.209 µM (active). In addition, the GI50 in the assay on ACHN was 0.288 µM (active); with HOP-62 it was 0.279 µM (active); in the assay on SF-295, 0.92 µM (active); in the assay on A498 it was 0.822 µM (active); in the assay with SK-OV-3, 2.3 µM (inactive); in the assay with MDA-MB-231 it was 1.16 µM (inactive). For the same compound, the GI50 in the assay with OVCAR-4 is 0.498 µM (active); in the assay with SK-MEL-28, 0.345 µM (active); in the assay with M14 it was 0.453 µM (active); in the assay with T47D, 2.88 µM (inactive); in the assay with SK-MEL-5, 0.174 µM (active); in the assay on LOX IMVI, 0.181 µM (active). For the same compound, in the assay on MDA-MB-435, the GI50 is 0.499 µM (active).
Turning to `CC(C)[Si](OC/C(=C/COC(C)(C)C)[C@H]1CC=C(C(=O)c2ccccc2N2CN(C)C(=O)N(C)C2)C1)(C(C)C)C(C)C`, the GI50 in the assay with SK-MEL-2 is 13.6 µM (inactive); in the assay with UO-31, 11.1 µM (inactive); in the assay on BT-549, 13.4 µM (inactive); in the assay with RXF 393, 4.02 µM (inactive); in the assay on CCRF-CEM, 3.1 µM (inactive); with DU-145 it was 13.5 µM (inactive). The GI50 in the assay with ACHN was 14.7 µM (inactive); in the assay with HOP-62, 16 µM (inactive); in the assay with SF-295, 12.9 µM (inactive); in the assay on A498, 19.7 µM (inactive); in the assay on SK-OV-3 it was 15.6 µM (inactive); with MDA-MB-231, 11.9 µM (inactive). Also, the GI50 in the assay with OVCAR-4 was 13.8 µM (inactive); in the assay with SK-MEL-28 it was 6.22 µM (inactive); in the assay on M14, 12.2 µM (inactive); in the assay on T47D, 7.73 µM (inactive); in the assay with SK-MEL-5, 9.95 µM (inactive); in the assay with LOX IMVI, 2.07 µM (inactive). In addition, the GI50 in the assay with MDA-MB-435 is 6.04 µM (inactive).
Turning to `C/C(=N\Nc1nc2ccccc2n1C)c1cc2ccccc2cn1`, the GI50 in the assay on SK-MEL-2 is 0.805 µM (active); in the assay on UO-31, < 0.01 µM (active); in the assay with BT-549, 2.8 µM (inactive); with RXF 393, 0.229 µM (active); in the assay with CCRF-CEM, 0.0161 µM (active); in the assay on DU-145, 1.58 µM (inactive). The GI50 with ACHN is < 0.01 µM (active); in the assay on HOP-62, 0.153 µM (active); in the assay with SF-295 it was 0.144 µM (active); in the assay with A498, 0.194 µM (active); in the assay with SK-OV-3 it was 0.0339 µM (active); in the assay with MDA-MB-231 it was < 0.01 µM (active). For the same compound, the GI50 in the assay on OVCAR-4 is 0.0423 µM (active); in the assay with SK-MEL-28 it was 0.213 µM (active); in the assay with M14 it was < 0.0335 µM (active); in the assay on T47D, < 0.0447 µM (active); in the assay with SK-MEL-5, 0.0286 µM (active); in the assay on LOX IMVI, 0.0305 µM (active). The GI50 in the assay with MDA-MB-435 is 0.295 µM (active).
For the compound `Cc1ccc(NC(c2ccccc2)c2ccc3cccnc3c2O)cc1` (stereo not given), the GI50 in the assay with SK-MEL-2 is 7.5 µM (inactive); in the assay with UO-31, 3.33 µM (inactive); with BT-549, 4.33 µM (inactive); in the assay on RXF 393 it was 4.4 µM (inactive); in the assay with CCRF-CEM, 0.787 µM (active); in the assay on DU-145 it was 11.1 µM (inactive). The GI50 with ACHN is 3.67 µM (inactive); with HOP-62 it was 4.97 µM (inactive); in the assay on SF-295, 3.72 µM (inactive); in the assay with A498, 12.2 µM (inactive); in the assay with SK-OV-3 it was 7.91 µM (inactive); with MDA-MB-231, 4.55 µM (inactive). Also, the GI50 was 3.85 µM (inactive) with OVCAR-4; 9.29 µM (inactive) in the assay with SK-MEL-28; 4.69 µM (inactive) in the assay on M14; 7.23 µM (inactive) with T47D; 3.97 µM (inactive) in the assay with SK-MEL-5; 3.6 µM (inactive) in the assay on LOX IMVI. Besides, in the assay with MDA-MB-435, the GI50 was 5.87 µM (inactive).
On to `CCCC[C@H]1C(=O)O[C@H](C)[C@H](NC(=O)c2cccc(NC=O)c2O)C(=O)O[C@@H](C)[C@@H]1OC(=O)CC(C)C` [ANTIMYCIN A3], for which the GI50 with SK-MEL-2 was 1.97 µM (inactive); in the assay with UO-31, 4.94 µM (inactive); in the assay with BT-549, 1.68 µM (inactive); in the assay with RXF 393, 6.49 µM (inactive); in the assay with CCRF-CEM, < 0.0229 µM (active); in the assay on DU-145 it was 3.55 µM (inactive). Moreover, the GI50 is 1.15 µM (inactive) in the assay on ACHN; 8.41 µM (inactive) in the assay on HOP-62; < 0.0421 µM (active) in the assay with SF-295; 4.23 µM (inactive) with A498; 12 µM (inactive) in the assay with SK-OV-3; 4.37 µM (inactive) with MDA-MB-231. The GI50 with OVCAR-4 was 2.37 µM (inactive); in the assay on SK-MEL-28 it was 6.73 µM (inactive); with M14, 14.9 µM (inactive); with T47D, 2.19 µM (inactive); in the assay on SK-MEL-5, < 0.01 µM (active); in the assay on LOX IMVI it was < 0.01 µM (active). Besides, the GI50 with MDA-MB-435 was 1.11 µM (active).
Regarding `COc1ccc(NC(C(N)=O)c2cc3cc(Br)ccc3nc2Cl)cc1` (stereo not given), the GI50 is 30.3 µM (inactive) in the assay on SK-MEL-2; > 100 µM (inactive) in the assay with UO-31; 31.4 µM (inactive) in the assay on BT-549; 38.3 µM (inactive) in the assay on RXF 393; 26.2 µM (inactive) with CCRF-CEM; > 100 µM (inactive) with DU-145. For the same compound, the GI50 was > 100 µM (inactive) in the assay on ACHN; 59.8 µM (inactive) with HOP-62; 38.4 µM (inactive) in the assay on SF-295; > 100 µM (inactive) in the assay on A498; > 100 µM (inactive) with SK-OV-3; 90.6 µM (inactive) with MDA-MB-231. Besides, the GI50 was 68.4 µM (inactive) in the assay on OVCAR-4; > 100 µM (inactive) in the assay with SK-MEL-28; 42 µM (inactive) in the assay on M14; 58.1 µM (inactive) in the assay with T47D; 53.5 µM (inactive) with SK-MEL-5; 44.6 µM (inactive) in the assay on LOX IMVI. Also, the GI50 in the assay with MDA-MB-435 is 22.1 µM (inactive).
As to `NC1(C(=O)NC2(C(=O)O)CCCC2)CCCC1` (H-[Ac5c]-[Ac5c]-OH), the GI50 with SK-MEL-2, with UO-31, with BT-549, with RXF 393, in the assay with CCRF-CEM and in the assay on DU-145 was > 100 µM (inactive) each time. For the same compound, the GI50 in the assay with ACHN, with HOP-62, with SF-295, in the assay with A498, with SK-OV-3 and with MDA-MB-231 was > 100 µM (inactive) throughout. Also, the GI50 with OVCAR-4, in the assay with SK-MEL-28, in the assay with M14, in the assay with T47D, in the assay with SK-MEL-5 and in the assay on LOX IMVI was > 100 µM (inactive) each time. The GI50 in the assay on MDA-MB-435 was > 100 µM (inactive).
On to `COc1cc2[nH]c(=O)[nH]c2c2c(C)c[nH]c12`, for which the GI50 in the assay on SK-MEL-2, in the assay with UO-31, in the assay with BT-549, in the assay on RXF 393, with CCRF-CEM and in the assay on DU-145 was > 100 µM (inactive) each time. In addition, the GI50 with ACHN, in the assay with HOP-62, in the assay with SF-295, in the assay on A498, in the assay on SK-OV-3 and with MDA-MB-231 was > 100 µM (inactive) in each case. The GI50 with OVCAR-4, with SK-MEL-28, with M14, in the assay on T47D, in the assay on SK-MEL-5 and with LOX IMVI was > 100 µM (inactive) in each case. Also, the GI50 in the assay with MDA-MB-435 is > 100 µM (inactive).
For `COC(=O)/C=C(\S/C(=C(/c1ccc(OC)cc1)n1cc(C(=O)OC)c(C(=O)OC)n1)c1ccc(OC)cc1)C(=O)OC`, the GI50 with SK-MEL-2 is 32.6 µM (inactive); with UO-31 it was 4.14 µM (inactive); in the assay with BT-549 it was 65.3 µM (inactive); with RXF 393 it was 12.6 µM (inactive); in the assay on CCRF-CEM it was 0.399 µM (active); with DU-145, 15.6 µM (inactive). Also, the GI50 with ACHN was 5.13 µM (inactive); in the assay on HOP-62 it was 44.9 µM (inactive); in the assay with SF-295, > 100 µM (inactive); in the assay with A498 it was > 100 µM (inactive); with SK-OV-3, > 100 µM (inactive); in the assay with MDA-MB-231, > 100 µM (inactive). Also, the GI50 in the assay with OVCAR-4 was 19.4 µM (inactive); in the assay on SK-MEL-28, 3.08 µM (inactive); with M14 it was 21.6 µM (inactive); in the assay on T47D, 3.02 µM (inactive); in the assay with SK-MEL-5, 35.5 µM (inactive); with LOX IMVI, 9.35 µM (inactive). Besides, the GI50 with MDA-MB-435 was 16.7 µM (inactive).
Turning to `CC(C)/C(Cl)=N/OC(=O)Nc1ccc(F)c(Cl)c1`, the GI50 with SK-MEL-2 was 18.8 µM (inactive); with UO-31, 16.7 µM (inactive); with BT-549, 5.06 µM (inactive); with RXF 393 it was 12.9 µM (inactive); in the assay with CCRF-CEM it was 1.31 µM (inactive); in the assay with DU-145, 16.2 µM (inactive). Further, the GI50 with ACHN is 1.88 µM (inactive); in the assay with HOP-62, 17.6 µM (inactive); in the assay with SF-295, 16.1 µM (inactive); in the assay with A498 it was 18.2 µM (inactive); with SK-OV-3, 16.4 µM (inactive); in the assay with MDA-MB-231, 16.2 µM (inactive). The GI50 with OVCAR-4 is 8.49 µM (inactive); in the assay on SK-MEL-28 it was 2.23 µM (inactive); in the assay on M14, 3.23 µM (inactive); in the assay with T47D it was 5.11 µM (inactive); in the assay with SK-MEL-5, 13.1 µM (inactive); with LOX IMVI, 1.76 µM (inactive). Besides, the GI50 in the assay with MDA-MB-435 was 7.26 µM (inactive).
